Tests used:
Assay type in all cases: cell-based, Human
[1] = tested on: Tdp1-over CL187 cells; experiment: Cell viability of Tdp1-overexpressing cells
Procedure: CL187 cells were cultured on 6-cm dishes at 37 °C for 24 h. The plasmid (2.5 μg) was diluted with 125 μL serum-free medium Opti-MEM, mixed gently, and incubated at room temperature for 5 min. Lipo 3000 (Invitrogen, Waltham, MA, USA) were diluted with 125 μL serum-free medium Opti-MEM, mixed and incubated for 5 min. Mixed the plasmid and Lipo 3000, incubated at room temperature for 20 min, the mixture was added to CL187 cells, the Tdp1 overexpressed plasmid were transfected into CL187 cells.
PTE or RE were dissolved in DMSO and diluted with culture medium to 1–100 μM. The final concentration of DMSO was less than 0.1%, and 0.1% DMSO as negative control. CPT, as Top1 inhibitor, was diluted to 0.5 μM [36, 37], and FM, as Tdp1 inhibitor was diluted to 25 μM [38]. Exponentially growing cells were seeded in 96-well plates (5 × 10^3 cells/well) for 12 h. […] Cell viability was determined by CCK-8 (Beyotime Biotechnology, Shanghai, China) assay. Cell viability and inhibition rate were calculated with the following formulae:Cell viability (%) = [OD450 (sample)/OD450 (control)] × 100(1) Inhibition rate (%) = […] − cell viability (%)(2)
The drug concentration required for inhibiting cell proliferation by 50% (IC50) was determined by interpolation from dose-response curves.

[2] = tested on: siRNA-Tdp1 CL187 cells; experiment: Cell viability of Tdp1-silenced cells
Procedure: PTE or RE were dissolved in DMSO and diluted with culture medium to 1–100 μM. The final concentration of DMSO was less than 0.1%, and 0.1% DMSO as negative control. […] Exponentially growing cells were seeded in 96-well plates (5 × 10^3 cells/well) for 12 h. Various drugs were added separately and incubated for 24, 48, and 72 h. Cell viability was determined by CCK-8 (Beyotime Biotechnology, Shanghai, China) assay.

[3] = tested on: Top1; experiment: Western blot of Top1 protein in cells; settings: 6 h
Procedure: CL187 cells were treated with RE or PTE for 6 or 12 h, collected, and placed into lysis buffer (KeyGEN BioTECH, Nanjing, China). The total protein content in the cell lysates was measured using a BCA kit. Equivalent amount of total protein (30 μg) was loaded onto 10% SDS-PAGE gel. Electrophoresis was performed at 80 V for 25 min. After the sample went through concentrated gel, the voltage was adjusted to 120 V. Electrophoresis was stopped when the bromophenol blue band approached the bottom of the gel. After being transferred to PVDF membranes, the samples were incubated separately with 3 types of primary antibodies Top1, Tdp1, and P53 rabbit mAb (CST, Boston, MA, USA), followed by the incubation with secondary antibody goat anti-rabbit IgG (HRP)-conjugated (1:3000). ECL kit (New Cell and Molecular Biotech, Suzhou, China) was used for color development, and the images were collected by the gel imaging system (Tanon-5200, Shanghai, China).

COc1cc(/C=C/c2ccc(O)cc2)cc(OC)c1 [PTE, 3,5-dimethoxy-4′-hydroxy-trans-stilbene]
IC50 ([1]; Homo sapiens, 24 h, Tdp1-over CL187, 24 h): 63 ± 13.6 µM | IC50 ([1]; Homo sapiens, 36 h, Tdp1-over CL187, 36 h): 41.1 ± 7.22 µM | IC50 ([1]; Homo sapiens, 48 h, Tdp1-over CL187, 48 h): 20.3 ± 3.13 µM | IC50 ([1]; Homo sapiens, 72 h, Tdp1-over CL187, 72 h): 19.1 ± 4.08 µM | IC50 ([1]; Tdp1-over CL187, 72 h): ~20 µM | IC50 ([2]; Homo sapiens, 24 h, siRNA-Tdp1 CL187, 24 h): 74.2 ± 21.8 µM | IC50 ([2]; Homo sapiens, 48 h, siRNA-Tdp1 CL187, 48 h): 24.8 ± 4.62 µM | IC50 ([2]; Homo sapiens, 72 h, siRNA-Tdp1 CL187, 72 h): 18.4 ± 3.78 µM | IC50 ([2]; siRNA-Tdp1 CL187, 72 h): ~20 µM | Top1 protein content ([3]; Tdp1-over CL187 cells): reduced in dese-dependent manner | Top1 protein content ([3]; siRNA-Tdp1 CL187 cells): significantly decreased | Top1 protein content ([3]; wild-type CL187 cells): decreased in PTE treatment group, but neither in dese-dependent and significant manner

— PMC8391236, “Effect of Pterostilbene, a Natural Derivative of Resveratrol, in the Treatment of Colorectal Cancer through Top1/Tdp1-Mediated DNA Repair Pathway” (Cancers, 2021)
